As usually defined, the pIC50 is the negative decadic logarithm of the IC50, by convention in mol/L. Usually Emax stands for the maximal effect, on the per cent scale that the assay sets. As usually defined, the pEC50 is the EC50 on a negative log10 scale, so that one unit is a factor of ten.

pEC50, pIC50: −log10 of the molar value. Bounds are passed on as bounds.

The subject of data set [1] is IL-6 cytokine output from THP-1s. Briefly: THP-1 AlphaLISA IL-6 cytokine assay. The class given is cell-based, human. The settings on record: Homo sapiens; PMA-differentiated THP-1 cells, LPS 24 hr then Nigericin 1 hour. The method, then: Measuring Inhibitory Effects on IL-1β and IL-6 Cytokine Output from THP-1s
The cytokine inhibition profiles of compounds of formula (IW-1) were determined in a differentiated THP-1 cell assay. All assays were performed in RPMI-1640 growth medium (Gibco), supplemented with 10% fetal bovine serum (FBS; Gibco), 1% penicillin-streptomycin and 1% sodium pyruvate unless specified otherwise. The IL-1β and IL-6 cytokine inhibition assays were each run in a background of differentiated THP-1 cells as described below. All reagents described were from Sigma-Aldrich unless specified otherwise. Compounds were prepared as 10 mM DMSO stocks.
THP-1 cells were expanded as a suspension up to 80% confluence in appropriate growth medium. Cells were harvested, suspended, and treated with an appropriate concentration of phorbol 12-myristate 13-acetate (PMA) over a 72 hr period (37° C./5% CO2).
Following 72 hrs of THP-1 cell incubation, cellular medium was removed and replaced with fresh growth media containing 1% of FBS. Working concentrations of compounds were prepared separately in 10% FBS treated growth medium and pre-incubated with the cells for 30 minutes (37° C./5% CO2). Following the 30 minute compound pre-incubation, THP-1s were treated with an appropriate concentration of LPS and the THP-1s were subsequently incubated for a 24 hr period (37° C./5% CO2). An appropriate final concentration of Nigericin was then dispensed into the THP-1 plates and incubated for 1 hour (37° C./5% CO2) before THP-1 supernatants were harvested and collected in separate polypropylene 96-well holding plates.
Reagents from each of the IL-1β and IL-6 commercial kits (Perkin Elmer) were prepared and run according to the manufacturer's instructions. Subsequently, fluorescence signal detection in a microplate reader was measured (EnVision® Multilabel Reader, Perkin Elmer).
Percentage inhibition was calculated per cytokine by normalising the sample data to the high and low controls used within each plate (+/−LPS respectively). Percentage inhibition was then plotted against compound concentration and the 50% inhibitory concentration (IC50) was determined from the resultant concentration-response curve.
A general note: In Alpha technology, singlet oxygen from a donor bead excites a nearby acceptor bead.

For data set [2], the system named is IL-1β cytokine output from THP-1s. Briefly: THP-1 AlphaLISA IL-1β cytokine assay. The class given is cell-based, human. The settings on record: Homo sapiens, THP-1, PMA-differentiated THP-1 cells, LPS 24 hr then Nigericin 1 hour; read-out: IL-1β (IC50). The gist of the method: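 THP-1 cells, PMA-differentiated 72 h; 30 min compound pre-incubation; LPS 24 h; nigericin 1 h; 37 °C/5% CO2. Supernatants read by AlphaLISA kit. IC50 from % inhibition vs concentration, normalised to +LPS (high) and −LPS (low) controls.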

For data set [3], the system named is NRF2. Briefly: NRF2 +/-GSH activation assay (DiscoverX PathHunter NRF2 translocation kit, U2OS cells). The class given is cell-based. The settings on record: Homo sapiens, GSH condition not stated in Table 5; for Emax: U2OS, normalised to dimethyl fumarate 'High' control, read-out: NRF2 activation Emax; for pEC50: U2OS PathHunter cells, 6 hours, read-out: NRF2 activation EC50. The method, then:
Measuring Compound Activation Effects on the Anti-Inflammatory Transcription Factor NRF2 in DiscoverX PathHunter NRF2 Translocation Kit
Potency and efficacy of compounds of formula (IW-1) against the target of interest to activate NRF2 (nuclear factor erythroid 2-related factor 2) were determined using the PathHunter NRF2 translocation kit (DiscoverX). The NRF2 translocation assay was run using an engineered recombinant cell line, utilising enzyme fragment complementation to determine activation of the Keap1-NRF2 protein complex and subsequent translocation of NRF2 into the nucleus. Enzyme activity was quantified using a chemiluminescent substrate consumed following the formation of a functional enzyme upon PK-tagged NRF2 translocation into the nucleus.
The assay was run under either +/−GSH (glutathione) conditions to determine the attenuating activities of GSH against target compounds.
Additionally, a defined concentration of dimethyl fumarate was used as the ‘High’ control to normalise test compound activation responses to.
U2OS PathHunter eXpress cells were thawed from frozen prior to plating. Following plating, U2OS cells were incubated for 24 hrs (37° C./5% CO2) in commercial kit provided cell medium.
Following 24 hrs of U2OS incubation, cells were directly treated with an appropriate final concentration of compound, for −GSH conditions, or for +GSH conditions, an intermediate plate containing 6× working concentrations of compound stocks was prepared in a 6 mM working concentration of GSH solution (solubilised in sterile PBS). Following a 30 minute compound-GSH pre-incubation (37° C./5% CO2) for +GSH treatment, plated U2OS cells were incubated with an appropriate final concentration of compound and GSH.
Following compound (+/−GSH) treatment, the U2OS plates were incubated for a further 6 hours (37° C./5% CO2) before detection reagent from the PathHunter NRF2 commercial kit was prepared and added to test plates according to the manufacturer's instructions. Subsequently, the luminescence signal detection in a microplate reader was measured (PHERAstar®, BMG Labtech).
Percentage activation was calculated by normalising the sample data to the high and low controls used within each plate (+/−DMF). Percentage activation/response was then plotted against compound concentration and the 50% activation concentration (EC50) was determined from the plotted concentration-response curve.

Data set [4] is described as follows: Mouse pharmacokinetic study, intravenous dosing. The class given is in vivo. The settings on record: male, C57BL/6, mouse, iv, plasma, 10 mg/kg i.v., read-out: Parent compound concentration following intravenous administration. The method, then:
Pharmacokinetic studies were carried out in 6-8-week-old male C57BL/6 mice having free access to food and water. Intravenous dosing was conducted at 10 mg/kg (5 mL/kg; vehicle: 10% DMSO-90% (25% HP-13-CD in water)) via tail vein injection, with sampling at 3 min, 8 min, 15 min, 30 min, 1, 2, 4, 6 and 8 hours, i.e., 9 time points in total (N=3/time point), using semi-serial bleeding for plasma. Oral compound administration, via gavage, was carried out at 100 mg/kg (10 mL/kg; vehicle: 5% DMSO-95% (0.5% HPMC+0.1% Tween 80 in water)), with sampling at 5 min, 15 min, 30 min, 1, 2, 4, 6, 8 and 24 hours, i.e., 9 time points in total (N=3/time point), using semi-serial bleeding for plasma.
For both intravenous and oral routes, the mice were restrained manually at the designated time points, with ca. 110 μL of blood being taken into K2EDTA tubes via the facial vein. Blood samples were put on ice and centrifuged to obtain plasma samples from which the concentration at each time point was measured by LC-MS/MS.

As to `C=C(CC(=O)OCCCCCCCC)C(=O)OC1CN(C(C)=O)C1` [Example 50, 1-(1-acetylazetidin-3-yl) 4-octyl 2-methylenesuccinate], the pIC50 in data set [1] is 5.77; in data set [2], 5.57. Also, the Emax in data set [3] turned out to be 225%. For the same compound, the pEC50 in data set [3] was 5.49.

For the compound `C=C(CC(=O)OC1CCCCCCC1)C(=O)OC1CS(=O)(=O)C1` [Example 54, 4-cyclooctyl 1-(1,1-dioxidothietan-3-yl) 2-methylenesuccinate], in data set [1], the pIC50 was 5.82. Also, the pIC50 in data set [2] is 5.41. In data set [3], the Emax came out at 105% and the pEC50 is 5.55.

As for `C=C(CC(=O)OC1CCCCCCC1)C(=O)OC1CCN(S(C)(=O)=O)CC1` [Example 69, 4-cyclooctyl 1-(1-(methylsulfonyl)piperidin-4-yl) 2-methylenesuccinate], in data set [1], the pIC50 was 5.66. In addition, the pIC50 in data set [2] is 5.77. Moreover, in data set [3], the Emax was found to be 111% and the pEC50 is 4.83.

Regarding `C=C(CC(=O)OCc1ccc(F)cc1)C(=O)OCCC(=O)O` [Example 81, 3-((4-((4-fluorobenzyl)oxy)-2-methylene-4-oxobutanoyl)oxy)propanoic acid], the pIC50 in data set [1] was 4.28; in data set [2], 4.00. Further, the Emax in data set [3] was found to be 110%. The pEC50 in data set [3] was 4.60.

Compound `C=C(CC(=O)OCCCCCC)C(=O)OCCC(=O)O` [Example 85, 3-((4-(hexyloxy)-2-methylene-4-oxobutanoyl)oxy)propanoic acid] had a negative-log IC50 (pIC50) in data set [1] of 4.73. Also, in data set [2], the pIC50 is 4.65. In addition, in data set [3], the Emax stood at 163% and the negative logarithm of the EC50 (pEC50) was 4.60.

As to `C=C(CC(=O)OCC(C)(C)C)C(=O)OCC(=O)O` [Example 92, 2-((2-methylene-4-(neopentyloxy)-4-oxobutanoyl)oxy)acetic acid], the pIC50 in data set [1] was 4.67. Moreover, in data set [2], the pIC50 is 4.12. Besides, in data set [3], the Emax was 109% and the pEC50 was 4.42.

On to `C=C(CC(=O)OCc1ccc(F)cc1)C(=O)OCC(=O)O` [Example 93, 2-((4-((4-fluorobenzyl)oxy)-2-methylene-4-oxobutanoyl)oxy)acetic acid], for which the pIC50 in data set [1] was 4.55. Besides, the pIC50 in data set [2] was 4.13. In data set [3], the Emax amounted to 118% and the pEC50 was 4.44.

For the compound `C=C(CC(=O)OC1CC2CCC1C2)C(=O)OCC(=O)O` (stereo not shown) [Example 115, 2-((4-(bicyclo[2.2.1]heptan-2-yloxy)-2-methylene-4-oxobutanoyl)oxy)acetic acid], the pIC50 in data set [1] is 4.44; in data set [2], 4.23.

In the case of `C=C(CC(=O)OC1CCC1)C(=O)OCC(=O)O` [Example 116, 2-((4-cyclobutoxy-2-methylene-4-oxobutanoyl)oxy)acetic acid], the pIC50 in data set [1] is 4.22; in data set [2], 4.00.

Regarding `C=C(CC(=O)OC1CCCCC1)C(=O)OCC(C)(C)C(=O)O` [Example 117, 3-((4-(cyclohexyloxy)-2-methylene-4-oxobutanoyl)oxy)-2,2-dimethylpropanoic acid], the pIC50 was 4.36 in data set [1] and 4.00 in data set [2].

`C=C(CC(=O)OCCCCCC)C(=O)OCC(=O)NS(=O)(=O)N(C)C` [Example 118, 1-(2-((N,N-dimethylsulfamoyl)amino)-2-oxoethyl) 4-hexyl 2-methylenesuccinate]: in data set [4] (time 0.05 h), the concentration at 0.05 h was found to be 3050 ng/mL. In addition, the concentration at 0.133 h in data set [4] (time 0.133 h) came to 161 ng/mL. Also, the concentration at 0.25 h in data set [4] (time 0.25 h) is 8 ng/mL. In addition, the concentration at 0.5 h in data set [4] (time 0.5 h) is 2.4 ng/mL. Further, the concentration at 1 h in data set [4] (time 1 h) was under 0.8 ng/mL. Further, the concentration at 2 h in data set [4] (time 2 h) was under 0.8 ng/mL. Further, the concentration at 4 h in data set [4] (time 4 h) is under 0.8 ng/mL. Also, in data set [4] (time 6 h), the concentration at 6 h was under 0.8 ng/mL. In data set [4] (time 8 h), the concentration at 8 h was under 0.8 ng/mL. The pIC50 is 4.85 in data set [1] and 4.79 in data set [2].

In the case of `C=C(CC(=O)OCCCCCC)C(=O)OCC(=O)NS(C)(=O)=O` [Example 119, 4-hexyl 1-(2-(methylsulfonamido)-2-oxoethyl) 2-methylenesuccinate], the pIC50 was 4.32 in data set [1] and 4.08 in data set [2].

Regarding `C=C(CC(=O)OCCCCCC)C(=O)OCCC(=O)NS(C)(=O)=O` [Example 120], the pIC50 in data set [1] is 5.11; in data set [2], 4.57.

Take `C=C(C(=O)OCCS(C)(=O)=O)C(C)C(=O)OCCCCCCCC` (stereo not shown) [Example 138, 4-(2-(methylsulfonyl)ethyl) 1-octyl 2-methyl-3-methylenesuccinate]: the pIC50 was 5.28 in data set [1] and 5.17 in data set [2].

For `C=C(C(=O)O[C@H]1CCOC1)C(C)C(=O)OCCCCCCCC` (stereo partly drawn) [Example 139, 1-octyl 4-((S)-tetrahydrofuran-3-yl) 2-methyl-3-methylenesuccinate], the pIC50 is 4.82 in data set [1] and 4.66 in data set [2].

As for `C=C(CC(=O)OCCCCCCCC)C(=O)OC1CC(F)(F)C1` [Example 185, 1-(3,3-difluorocyclobutyl) 4-octyl 2-methylenesuccinate], the pIC50 in data set [1] was 5.06; in data set [2] it was 4.67.
